In US20250235499A1, “ANTI-OVARIAN CANCER PHARMACEUTICAL COMPOSITION AND ACTION TARGET THEREOF” (Zhejiang Chinese Medical University, priority 2024, published 2025):

How the values were obtained:
[1] = tested on: CDK4, Cyclin D1, P21 in Hey cells; assay: Expression of cell cycle related proteins in cells; format: cell-based, human
[2] = tested on: CDK4, Cyclin D1, P21 in SKOV3 cells; assay: Expression of cell cycle related proteins in cells; format: cell-based, human
[3] = tested on: Hey ovarian cancer cell; assay: Tumor bearing nude mouse model (tumor volume, tumor inhibition rate, body weight); format: in vivo, BALB/c nude mice; settings: intraperitoneal, 15 days; DDP 3 mg/kg, CA 80 mg/kg, BDMC 5 mg/kg; compared to the Control group, P<0.01
Description: Newly housed BALB/c nude mice were placed in an SPF grade feeding room laminar flow rack for adaptive feeding for one week, and the experimental animal status was adjusted. A Hey ovarian cancer cell was cultivated to the logarithmic growth stage, and the original culture medium was discarded. The Hey ovarian cancer cell was washed with PBS buffer, added with 0.1% trypsin digestion for digestion, added with the corresponding culture medium to terminate digestion, centrifuged at 1000 rpm for 3 minutes, and added with PBS buffer to prepare a cell suspension. The cell was counted using a hemocytometer, and the cell concentration was quantified to 5×10^7 cells/mL. After grasping and fixing the nude mouse with the left hand, and the skin at a needle inserting site on the right forelimb axilla of the nude mouse was disinfected with a 75% alcohol cotton ball. A disposable 1 mL syringe was used to inject approximately 100 μL of cell suspension subcutaneously into the posterior axilla of the right forelimb in an oblique stabbing inserting needle mode, so that each nude mouse was injected with approximately 5×10^6 cells. After vaccination, the needle inserting site was gently pressed with a cotton ball to prevent the cell suspension from leaking from a needle hole. The growth status of tumors at the vaccination site of nude mice was observed daily. After about one week, if the tumors at the vaccination site were compacted and appeared light red in color, it could be considered as successful tumor growth. At this time, the nude mice were randomly divided into 5 groups, a Control group intraperitoneally injected with physiological saline for 1 day each time; a DDP group intraperitoneally injected with cisplatin, 3 mg/kg, 3 d/time; a CA group intraperitoneally injected with CA, 80 mg/kg, 1 d/time; a BDMC group intraperitoneally injected with BDMC, 5 mg/kg, 1 d/time; a CA+BDMC group intraperitoneally injected with CA 80 mg/kg+BDMC 5 mg/kg, 1 d/time, 8 animals per group. A tumor length (L) and a […] were measured with a vernier caliper every 3 days to calculate a tumor volume. After 15 days of administration, nude mice were euthanized by dislocation of cervical vertebra, and tumor tissue was dissected. The tumor weight was weighed to calculate the tumor inhibition rate. The tumor tissue was stored in two batches at −80° C. and fixed with 4% paraformaldehyde.

[4] = tested on: MCM2, CDK4, Cyclin D1, P21; assay: Western Blot of tumor body cyclin in tumor bearing nude mice; format: in vivo, BALB/c nude mice; settings: nude mouse tumor body, compared to the Control group
From the text: The expression of nude mice tumor body cyclin and EMT related proteins in tumor bearing nude mice after intervention with DDP, CA, BDMC, and combined administration was shown in FIG. 29. In the figure, 1 represented the Control group; 2 represented the DDP group; 3 represented the CA group; 4 represented the BDMC group; and 5 represented the CA+BDMC group.

[5] = tested on: Hey ovarian cancer cells; assay: Cell cycle by flow cytometry (PI) with MCM2 knockdown or overexpression; format: cell-based, human
Description: SKOV3 and Hey ovarian cancer cells in logarithmic growth phase were knocked down with MCM2 (Control group, sh-NC group, sh-MCM2 group) and overexpressed with MCM2 (Control group, OE-NC group, OE-MCM2 group). The original culture medium was discarded, washed with PBS buffer, and digested with 0.1% trypsin. A corresponding culture medium was added to prepare a cell suspension. Cells were counted using a hemocytometer and a cell concentration was quantified at 5×10^4 cells/mL. 1500 μL of each well was inoculated into a 6 well plate, with 3 parallel wells in each group, and incubated in a 37° C. incubator containing 5% CO2 for 24 hours. After the cultivation time was over, the six well plate was taken out and aspirated the original culture medium from the wells for later use. The PBS buffer was added to gently wash the cells three times. 500 μL of 0.1% trypsin was added to each well to wait for the cells to be blown off with a pipette, then the original culture medium from the wells was added to terminate digestion. A pipette was used to gently blow off all the cells on the wall of the six well plate. The cell suspension was aspirated, transferred to a centrifuge tube, and centrifuged at 4° C. and 1000 rpm for 5 minutes. The supernatant was discarded, and 1 mL of pre-cooled PBS buffer was added to gently resuspend the cells, and transferred to a 1.5 mL sterile centrifuge tube. The mixture was centrifuged at 4° C. and 1000 rpm for 5 minutes, the supernatant was discarded, and the bottom of the centrifuge tube was gently tapped to disperse the cells. 1 mL of pre-cooled 70% ethanol was added, blown and mixed well to form a cell suspension, and placed in a refrigerator at 4° C. for 24 hours. After fixation, a water bath kettle was opened in advance, the temperature was set to 37° C., the centrifugation was performed for 5 minutes at 4° C. and 1000 rpm, and the supernatant was discarded. 1 mL of pre-cooled PBS buffer was added and gently resuspended to wash the cells. The mixture was centrifuged at 4° C. and 1000 rpm for 5 minutes, the supernatant was discarded, and the bottom of the centrifuge tube was gently tapped to disperse the cells. 500 μL of PI staining working solution containing RNase was added to each cell sample to be tested, and placed in a 37° C. dark water bath for 30 minutes. A flow cytometer was used to detect red fluorescence at an excitation wavelength of 488 nm, while also measuring light scattering. A modfit 3.2 version was used for cell DNA cycle analysis.

[6] = tested on: E-cadherin, N-cadherin, Vimentin; assay: Western Blot of tumor body EMT related proteins in tumor bearing nude mice; format: in vivo, BALB/c nude mice; settings: nude mouse tumor body, compared to the Control group
From the text: The expression of EMT related proteins was shown in FIG. 30: (1) represented the Control group; (2) represented the DDP group; (3) represented the CA group; (4) represented the BDMC group; and (5) represented the CA+BDMC group.

[7] = Hey OE-MCM2 cells (MCM2 overexpression), vs OE-MCM2 group
[8] = Hey OE-NC cells (empty vector), vs OE-NC group
[9] = Hey sh-MCM2 cells (MCM2 knockdown), vs sh-MCM2 group
[10] = Hey sh-NC cells (empty vector), vs sh-NC group
[11] = SKOV3 OE-MCM2 cells (MCM2 overexpression), vs OE-MCM2 group
[12] = SKOV3 OE-NC cells (empty vector), vs OE-NC group
[13] = SKOV3 sh-MCM2 cells (MCM2 knockdown), vs sh-MCM2 group
[14] = SKOV3 sh-NC cells (empty vector), vs sh-NC group

Structure (SMILES): COc1ccc(-c2coc3cc(O)ccc3c2=O)cc1O [CA, calycosin]
- expression of CDK4 [1, 7]: no significant change
- expression of Cyclin D1 [1, 7]: no significant change
- expression of P21 [1, 7]: no significant change
- expression of CDK4 [1, 8]: significantly decreased
- expression of Cyclin D1 [1, 8]: significantly decreased
- expression of P21 [1, 8]: significantly increased
- expression of CDK4 [1, 9]: no significant change
- expression of Cyclin D1 [1, 9]: no significant change
- expression of P21 [1, 9]: no significant change
- expression of CDK4 [1, 10]: significantly decreased
- expression of Cyclin D1 [1, 10]: significantly decreased
- expression of P21 [1, 10]: significantly increased
- expression of CDK4 [2, 11]: no significant change
- expression of Cyclin D1 [2, 11]: no significant change
- expression of P21 [2, 11]: no significant change
- expression of CDK4 [2, 12]: significantly decreased
- expression of Cyclin D1 [2, 12]: significantly decreased
- expression of P21 [2, 12]: significantly increased
- expression of CDK4 [2, 13]: no significant change
- expression of Cyclin D1 [2, 13]: no significant change
- expression of P21 [2, 13]: no significant change
- expression of CDK4 [2, 14]: significantly decreased
- expression of Cyclin D1 [2, 14]: significantly decreased
- expression of P21 [2, 14]: significantly increased
- tumor inhibition rate [3]: significantly increased
- tumor volume size [3]: significantly reduced
- expression of CDK4 protein (Western Blot) [4]: significantly decreased
- expression of Cyclin D1 protein (Western Blot) [4]: significantly decreased
- expression of MCM2 protein (Western Blot) [4]: significantly decreased
- expression of P21 protein (Western Blot) [4]: significantly increased
- percentage of G0/G1 phase cells [5, 7]: no significant change
- percentage of G0/G1 phase cells [5, 8]: significantly increased
- percentage of G0/G1 phase cells [5, 9]: no significant change
- percentage of G0/G1 phase cells [5, 10]: significantly increased
- expression of E-cadherin protein (Western Blot) [6]: significantly increased
- expression of N-cadherin protein (Western Blot) [6]: significantly decreased
- expression of Vimentin protein (Western Blot) [6]: significantly decreased
